Laboratory results: patent US11285127B2, “Compositions and methods for lowering triglycerides without raising LDL-C levels in a subject on concomitant statin therapy” (Amarin Pharmaceuticals Ireland Limited, priority 2013, dated 2022)

System: patients with fasting triglyceride levels >200 mg/dl and <500 mg/dl despite statin therapy
Test: 12-week study: lipoprotein particle concentration (VLDL, LDL, HDL; nuclear magnetic resonance)
Assay type: in vivo, human
Settings: for LDL Particle Concentration, Week 12 EP Median (IQR): MITT; for LDL Particle Concentration, Percent change from Baseline, Median (IQR) / LDL Particle Concentration, Difference from placebo, Estimated median: Week 12, MITT; for LDL Particle Concentration, Difference from placebo, Estimated median: difference in percent change
Text: Parameters (a)-(z) can be measured in accordance with any clinically acceptable methodology. For example, triglycerides, total cholesterol, HDL-C and fasting blood sugar can be sample from serum and analyzed using standard photometry techniques. VLDL-TG, LDL-C and VLDL-C can be calculated or determined using serum lipoprotein fractionation by preparative ultracentrifugation and subsequent quantitative analysis by refractometry or by analytic ultracentrifugal methodology. Apo A1, Apo B and hsCRP can be determined from serum using standard nephelometry techniques. Lipoprotein (a) can be determined from serum using standard turbidimetric immunoassay techniques. LDL particle number and particle size can be determined using nuclear magnetic resonance (NMR) spectrometry. Remnants lipoproteins and LDL-phospholipase A2 can be determined from EDTA plasma or serum and serum, respectively, using enzymatic immunoseparation techniques. Oxidized LDL, intercellular adhesion molecule-1 and interleukin-2 levels can be determined from serum using standard enzyme immunoassay techniques. These techniques are described in detail in standard textbooks, for example Tietz Fundamentals of Clinical Chemistry, 6th Ed. (Burtis, Ashwood and Borter Eds.), WB Saunders Company.
A multi-center, placebo-controlled, randomized, double-blind, 12-week study was performed to evaluate the efficacy and safety of >96% E-EPA in patients with fasting triglyceride levels >200 mg/dl and <500 mg/dl despite statin therapy (the mean of two qualifying entry values needed to be >185 mg/dl and at least one of the values needed to be >200 mg/dl). The primary objective of the study was to determine the efficacy of >96% E-EPA 2 g daily and 4 g daily, compared to placebo, in lowering fasting TG levels in patients with high risk for cardiovascular disease and with fasting TG levels 200 mg/dl and <500 mg/dl, despite treatment to LDL-C goal on statin therapy.
The secondary objectives of this study were the following: • 1. To determine the safety and tolerability of >96% E-EPA 2 g daily and 4 g daily; • 2. To determine the effect of >96% E-EPA on lipid and apolipoprotein profiles including total cholesterol (TC), non-high-density lipoprotein cholesterol (non-HDL-C), low density lipoprotein cholesterol (LDL-C), high density lipoprotein cholesterol (HDL-C), and […]; • 3. To determine the effect of >96% E-EPA on lipoprotein associated phospholipase A2 (Lp-PLA2) from baseline to week 12; • 4. To determine the effect of >96% E-EPA on low-density lipoprotein (LDL) particle number and size; • 5. To determine the effect of >96% E-EPA on oxidized LDL; • 6. To determine the effect of >96% E-EPA on fasting plasma glucose (FPG) and hemoglobin A1c (HbA1c); • 7. To determine the effect of >96% E-EPA on insulin resistance; • 8. To determine the effect of >96% E-EPA on high-sensitivity C-reactive protein (hsCRP); • 9. To determine the effects of >96% E-EPA 2 g daily and 4 g daily on the incorporation of fatty acids into red blood cell membranes and into plasma phospholipids; • 10. To explore the relationship between baseline fasting TG levels and the reduction in fasting TG levels; and • 11. To explore the relationship between changes of fatty acid concentrations in plasma and red blood cell membranes, and the reduction in fasting TG levels.
The primary efficacy variable for the double-blind treatment period was percent change in TG from baseline to Week 12 endpoint. […]

[1] = 2 g/day, 12 weeks, placebo-adjusted Hodges-Lehmann median
[2] = 4 g/day, 12 weeks, placebo-adjusted Hodges-Lehmann median
[3] = 4 g/day, 12 weeks, placebo-adjusted Hodges-Lehmann median, listed as IPE
[4] = IPE 2 g/day (n = 222), 12 weeks

Structure (SMILES): CC/C=C\C/C=C\C/C=C\C/C=C\C/C=C\CCCC(=O)OCC [AMR101, ethyl eicosapentaenoate]
- IDL particle concentration, Median Change From Baseline IPE 2 g/day vs Placebo [1]: 8.6%
- Large HDL particle concentration, Median Change From Baseline IPE 2 g/day vs Placebo [1]: −13.5%
- Large LDL particle concentration, Median Change From Baseline IPE 2 g/day vs Placebo [1]: 26.5%
- Large VLDL particle concentration, Median Change From Baseline IPE 2 g/day vs Placebo [1]: −24.2%
- Medium HDL particle concentration, Median Change From Baseline IPE 2 g/day vs Placebo [1]: −4.5%
- Medium VLDL particle concentration, Median Change From Baseline IPE 2 g/day vs Placebo [1]: 2.6%
- Small HDL particle concentration, Median Change From Baseline IPE 2 g/day vs Placebo [1]: −0.2%
- Small LDL particle concentration, Median Change From Baseline IPE 2 g/day vs Placebo [1]: −14.7%
- Small VLDL particle concentration, Median Change From Baseline IPE 2 g/day vs Placebo [1]: 16.5%
- Total HDL particle concentration, Median Change From Baseline IPE 2 g/day vs Placebo [1]: −3.1%
- Total LDL particle concentration, Median Change From Baseline IPE 2 g/day vs Placebo [1]: −7.5%
- Total VLDL particle concentration, Median Change From Baseline IPE 2 g/day vs Placebo [1]: 1.8%
- Reduction of median concentration of small LDL particles over baseline when adjusted for placebo control (4 g per day, 12 weeks): 13.5%
- Reduction of median concentration of total HDL over baseline when adjusted for placebo (4 g per day, 12 weeks): 7.4%
- Reduction of median concentration of total LDL over baseline when adjusted for placebo (4 g per day, 12 weeks): 7.7%
- Reduction of median concentration of total VLDL over baseline when adjusted for placebo (4 g per day, 12 weeks): 12.2%
- IDL particle concentration, Median Change From Baseline IPE 4 g/day vs Placebo [2]: 10.0%
- Medium HDL particle concentration, Median Change From Baseline IPE 4 g/day vs Placebo [2]: −6.5%
- Small HDL particle concentration, Median Change From Baseline IPE 4 g/day vs Placebo [2]: −2.8%
- Small LDL particle concentration, Median Change From Baseline IPE 4 g/day vs Placebo [2]: −13.5%
- Small VLDL particle concentration, Median Change From Baseline IPE 4 g/day vs Placebo [2]: 2.8%
- Total HDL particle concentration, Median Change From Baseline IPE 4 g/day vs Placebo [2]: −7.4%
- Total LDL particle concentration, Median Change From Baseline IPE 4 g/day vs Placebo [2]: −7.7%
- Total VLDL particle concentration, Median Change From Baseline IPE 4 g/day vs Placebo [2]: −12.2%
- Large HDL particle concentration, Median Change From Baseline IPE 4 g/day vs Placebo [3]: −31.0%
- Large LDL particle concentration, Median Change From Baseline IPE 4 g/day vs Placebo [3]: 34.2%
- Large VLDL particle concentration, Median Change From Baseline IPE 4 g/day vs Placebo [3]: −46.4%
- Medium VLDL particle concentration, Median Change From Baseline IPE 4 g/day vs Placebo [3]: −12.1%
- Small LDL particle concentration, Median Change From Baseline IPE 4 g/day vs Placebo [3]: −13.5%
- Total HDL particle concentration, Median Change From Baseline IPE 4 g/day vs Placebo [3]: −7.4%
- Total LDL particle concentration, Median Change From Baseline IPE 4 g/day vs Placebo [3]: −7.7%
- Total VLDL particle concentration, Median Change From Baseline IPE 4 g/day vs Placebo [3]: −12.2%
- LDL Particle Concentration, Week 12 EP Median (IQR) (AMR101 2g/d + statin, n 222): 1215.0 (355.0) nmol/L
- LDL Particle Concentration, Percent change from Baseline, Median (IQR) (AMR101 2g/d + statin): 4.7 (29.2) %
- LDL Particle Concentration, Difference from placebo, Estimated median (AMR101 2g/d + statin): −7.5
- LDL Particle Concentration, Week 12 EP Median (IQR) (AMR101 4g/d + statin, n 216): 1190.5 (512.0) nmol/L
- LDL Particle Concentration, Percent change from Baseline, Median (IQR) (AMR101 4g/d + statin): 3.8 (31.8) %
- LDL Particle Concentration, Difference from placebo, Estimated median (AMR101 4g/d + statin): −7.7
- IDL particle concentration, Change from Baseline % (median) [4]: 10.5%
- IDL particle concentration, End of Treatment (median) [4]: 63.5 nmol/L
- Large HDL particle concentration, Change from Baseline % (median) [4]: −4.0%
- Large HDL particle concentration, End of Treatment (median) [4]: 2.4 µmol/L
- Large LDL particle concentration, Change from Baseline % (median) [4]: 47.7%
- Large LDL particle concentration, End of Treatment (median) [4]: 202.0 nmol/L
- Large VLDL particle concentration, Change from Baseline % (median) [4]: −19.7%
- Large VLDL particle concentration, End of Treatment (median) [4]: 10 nM
- Medium HDL particle concentration, Change from Baseline % (median) [4]: 2.9%
- Medium HDL particle concentration, End of Treatment (median) [4]: 7.2 µmol/L
- Medium VLDL particle concentration, Change from Baseline % (median) [4]: 7.9%
- Medium VLDL particle concentration, End of Treatment (median) [4]: 59.6 nmol/L
- Small HDL particle concentration, Change from Baseline % (median) [4]: −0.6%
- Small HDL particle concentration, End of Treatment (median) [4]: 23.8 µmol/L
- Small LDL particle concentration, Change from Baseline % (median) [4]: −4.3%
- Small LDL particle concentration, End of Treatment (median) [4]: 920.5 nmol/L
- Small VLDL particle concentration, Change from Baseline % (median) [4]: 22.1%
- Small VLDL particle concentration, End of Treatment (median) [4]: 49.6 nmol/L
- Total HDL particle concentration, Change from Baseline % (median) [4]: 0.7%
- Total HDL particle concentration, End of Treatment (median) [4]: 34.7 µmol/L
- Total LDL particle concentration, Change from Baseline % (median) [4]: 4.7%
- Total LDL particle concentration, End of Treatment (median) [4]: 1215 nmol/L
- Total VLDL particle concentration, Change from Baseline % (median) [4]: 12.0%
